Measured values published in publication PMC10562414, “GLP-1R signaling neighborhoods associate with the susceptibility to adverse drug reactions of incretin mimetics” (Nature Communications, 2023).

Tests used:
GLP-1R [1] = biological target: T1, GLP-1R (Homo sapiens, UniProt P43220); test: ebBRET pathway activation (15 pathways) at the Golgi apparatus (tdrGFP-Giantin); assay type: cell-based; conditions: for Efficacy (normalized) / Potency (logEC50) / Emax: Golgi apparatus
[2] = tested on: HEK293 cells without GLP-1R (phosphoproteome); test: Phosphoproteomics, untransfected / mock-transfected control cells, 30 min; assay type: cell-based, human; conditions: mock transfection, 1 μM, vs vehicle
Procedure: P values were calculated by a two-sided unpaired t-test.
HEK293 cells (350,000 cells/mL) were transfected in suspension using 3 μg of linear PEI (MW 25,000) per 1 μg of plasmid DNA and seeded onto poly-D-lysine-coated 60 mm dishes at a density of 1,750,000 cells per dish. After a 24-h incubation, cells were washed twice with PBS and placed in starvation media (DMEM with penicillin/streptomycin). After a 48-h incubation, cells were washed twice with HBSS and maintained in the same buffer. […] Cell extracts were prepared as previously described[64]–[66]. In short, 200 μL of the lysis buffer preheated at 95 °C (4% sodium dodecyl sulfate in 50 mM Tris adjusted to pH 8.5) was added to the cells. The samples were then denatured at 95 °C for 10 min, placed on ice and then sonicated using a probe sonicator (3 sec on, 3 sec off pulse, 1 min, 30% amplitude) (Branson). Lysate protein concentration was determined using the Pierce bicinchoninic acid assay kit (Thermo Fisher Scientific) according to the manufacturer’s instructions. The lysates were reduced using 5 mM dithiothreitol for 1 h at room temperature and alkylated using 15 mM iodoacetamide for 1 h at room temperature in the dark. Proteins were precipitated and digested on beads using MagReSyn Amine magnetic beads (ReSyn Biosciences) according to the manufacturer’s instructions. Protein digestion was conducted overnight at 37 °C with lysyl endopeptidase (LysC, Wako) (1:150 LysC/protein, w/w) and trypsin (1:300 trypsin/protein, w/w). 20% TFA, 2 M glycolic acid in 80% ACN were added to the samples at a 1:1 ratio for phosphopeptide enrichment using MagReSyn TiO2 magnetic beads (ReSyn Biosciences) according to the manufacturer’s instructions. The enriched phosphopeptides were dried overnight in a SpeedVac, resuspended into 5% formic acid (FA), desalted using StageTip (Thermo Fisher Scientific) according to the manufacturer’s instructions and dried in a SpeedVac. The experiment was performed in biological triplicates.
All parameters and settings regarding the acquisition of the proteomics data can be found in Supplementary Data 11, 12. For data acquisition, the instrument was set to peptide mode, with a trapping pressure set as low (2mTorr). An EASY-Spray Source (Thermo Fisher Scientific) was used and the column temperature was maintained with the integrated, temperature-controlled heater at 55 °C throughout the experiment. For the data presented in Fig. 5d, the column was heated at 50 °C following the manufacturer’s instructions (IonOpticks).
Acquired raw files were converted to mzML format by MSConvert (version 3.0.21258)[67] applying peak picking of the mass spectra with the vendor-provided algorithm (Thermo Fisher Scientific). The mzML files were analyzed using the FragPipe GUI v18 for both library and DIA search. […] Trypsin with up to 2 missed cleavages was set as digestion enzyme, oxidation of methionine, acetylation of the N-terminus and phosphorylation on serine, threonine and tyrosine (maximal occurrence was set to three) were set as variable modifications. Carbamidomethylation of cysteine residues was set as a fixed modification. Peptide length was restricted to 7 to 50 amino acids, and 500 to 5000 Da. […] DIA files were analyzed by DIA-NN 1.8.1[71], [72] using the previously generated library and monitor-command mode. Peptide quantification was performed based on the fragment elution profiles from the MS2 level (area under the curve). […]

GLP-1R [3] = biological target: T1, GLP-1R; test: ebBRET pathway activation (15 transducers), normalized efficacy and potency, Supplementary Fig. 11 (cellular compartment not given); assay type: cell-based

T1 sequence (P43220 24-463): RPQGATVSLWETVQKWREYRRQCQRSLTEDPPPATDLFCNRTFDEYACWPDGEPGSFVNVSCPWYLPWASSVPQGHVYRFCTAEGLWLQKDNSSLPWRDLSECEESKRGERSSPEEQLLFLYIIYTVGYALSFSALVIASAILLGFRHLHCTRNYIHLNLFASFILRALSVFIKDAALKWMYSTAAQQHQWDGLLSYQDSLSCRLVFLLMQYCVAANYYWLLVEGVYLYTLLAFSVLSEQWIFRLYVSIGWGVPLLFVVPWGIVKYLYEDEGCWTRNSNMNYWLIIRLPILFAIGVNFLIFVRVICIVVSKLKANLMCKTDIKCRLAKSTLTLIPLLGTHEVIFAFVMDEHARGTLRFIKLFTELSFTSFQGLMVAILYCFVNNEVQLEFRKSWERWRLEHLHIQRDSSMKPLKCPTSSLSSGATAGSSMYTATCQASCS

N#Cc1ccc(COc2cccc(C3CCN(Cc4nc5ccc(C(=O)O)cc5n4C[C@@H]4CCO4)CC3)n2)c(F)c1 [Danuglipron]
Efficacy (normalized) (GLP-1R [1]; GRK2/Gβγ): 0
Potency (logEC50) (GLP-1R [1]; GRK2/Gβγ): 0
Emax (GLP-1R [1]; GRK/Gβγ): 0
Efficacy (normalized) (GLP-1R [1]; Gα11): 0
Emax (GLP-1R [1]; Gα11): 0
Potency (logEC50) (GLP-1R [1]; Gα11): 0
Efficacy (normalized) (GLP-1R [1]; Gα12): 0
Emax (GLP-1R [1]; Gα12): 0
Potency (logEC50) (GLP-1R [1]; Gα12): 0
Efficacy (normalized) (GLP-1R [1]; Gα13): 0
Emax (GLP-1R [1]; Gα13): 0
Potency (logEC50) (GLP-1R [1]; Gα13): 0
Efficacy (normalized) (GLP-1R [1]; Gα14): 0
Emax (GLP-1R [1]; Gα14): 0
Potency (logEC50) (GLP-1R [1]; Gα14): 0
Efficacy (normalized) (GLP-1R [1]; Gα15): 0
Emax (GLP-1R [1]; Gα15): 0
Potency (logEC50) (GLP-1R [1]; Gα15): 0
Efficacy (normalized) (GLP-1R [1]; Gαi1): 0
Emax (GLP-1R [1]; Gαi1): 0
Potency (logEC50) (GLP-1R [1]; Gαi1): 0
Efficacy (normalized) (GLP-1R [1]; Gαi2): 0
Emax (GLP-1R [1]; Gαi2): 0
Potency (logEC50) (GLP-1R [1]; Gαi2): 0
Efficacy (normalized) (GLP-1R [1]; Gαi3): 0
Emax (GLP-1R [1]; Gαi3): 0
Potency (logEC50) (GLP-1R [1]; Gαi3): 0
Efficacy (normalized) (GLP-1R [1]; GαoA): 0
Emax (GLP-1R [1]; GαoA): 0
Potency (logEC50) (GLP-1R [1]; GαoA): 0
Efficacy (normalized) (GLP-1R [1]; GαoB): 0
Emax (GLP-1R [1]; GαoB): 0
Potency (logEC50) (GLP-1R [1]; GαoB): 0
Efficacy (normalized) (GLP-1R [1]; Gαq): 0
Emax (GLP-1R [1]; Gαq): 0
Potency (logEC50) (GLP-1R [1]; Gαq): 0
Efficacy (normalized) (GLP-1R [1]; Gαs): 0.8077
Emax (GLP-1R [1]; Gαs): 0.9498
Potency (logEC50) (GLP-1R [1]; Gαs): 0.7638
Efficacy (normalized) (GLP-1R [1]; Gαz): 1
Emax (GLP-1R [1]; Gαz): 0.06827
Potency (logEC50) (GLP-1R [1]; Gαz): 0.517
Emax (GLP-1R [1]; βARR): 0.7121
Efficacy (normalized) (GLP-1R [1]; βARR2): 0.4942
Potency (logEC50) (GLP-1R [1]; βARR2): 0.4339
mGs recruitment at the Golgi apparatus, in words (GLP-1R [1]; Rluc8-mGs, tdrGFP-Giantin, 60 min, n = 3): induced a strong response at the Golgi apparatus
log2.foldchange, EIF3J S11 ([2]; p 0.0145494, n = 3): -0.5603
log2.foldchange, VPS51 S18 (peptide ...EAPER) ([2]; p 0.168261, n = 3): -0.2294
log2.foldchange, VPS51 S18 (peptide ...EAPERR) ([2]; p 0.181448, n = 3): 0.6501
log2.foldchange, VPS51 S10 ([2]; p 0.364227, n = 3): 0.2093
log2.foldchange, PABPN1 S19 ([2]; p 0.447985, n = 3): 0.07218
Efficacy (normalized), GRK2/Gβγ (GLP-1R [3]; Supplementary Fig. 11a, GRK2/Gβγ): 0.507
Efficacy (normalized), Gα11 (GLP-1R [3]; Supplementary Fig. 11a, Gα11): 0
Efficacy (normalized), Gα12 (GLP-1R [3]; Supplementary Fig. 11a, Gα12): 0
Efficacy (normalized), Gα13 (GLP-1R [3]; Supplementary Fig. 11a, Gα13): 0
Efficacy (normalized), Gα14 (GLP-1R [3]; Supplementary Fig. 11a, Gα14): 0.9516
Efficacy (normalized), Gα15 (GLP-1R [3]; Supplementary Fig. 11a, Gα15): 0
Efficacy (normalized), Gαi1 (GLP-1R [3]; Supplementary Fig. 11a, Gαi1): 0
Efficacy (normalized), Gαi2 (GLP-1R [3]; Supplementary Fig. 11a, Gαi2): 0
Efficacy (normalized), Gαi3 (GLP-1R [3]; Supplementary Fig. 11a, Gαi3): 0
Efficacy (normalized), GαoA (GLP-1R [3]; Supplementary Fig. 11a, GαoA): 0.4649
Efficacy (normalized), GαoB (GLP-1R [3]; Supplementary Fig. 11a, GαoB): 0.7256
Efficacy (normalized), Gαq (GLP-1R [3]; Supplementary Fig. 11a, Gαq): 0
Efficacy (normalized), Gαs (GLP-1R [3]; Supplementary Fig. 11a, Gαs): 0
Efficacy (normalized), Gαz (GLP-1R [3]; Supplementary Fig. 11a, Gαz): 0.5189
Efficacy (normalized), βARR2 (GLP-1R [3]; Supplementary Fig. 11a, βARR2): 0.458
Potency (logEC50), Gα11 (GLP-1R [3]; Supplementary Fig. 11b, Gα11): 0
Potency (logEC50), Gα12 (GLP-1R [3]; Supplementary Fig. 11b, Gα12): 0
Potency (logEC50), Gα13 (GLP-1R [3]; Supplementary Fig. 11b, Gα13): 0
Potency (logEC50), Gα14 (GLP-1R [3]; Supplementary Fig. 11b, Gα14): 0.7414
Potency (logEC50), Gα15 (GLP-1R [3]; Supplementary Fig. 11b, Gα15): 0
Potency (logEC50), Gαi1 (GLP-1R [3]; Supplementary Fig. 11b, Gαi1): 0
Potency (logEC50), Gαi2 (GLP-1R [3]; Supplementary Fig. 11b, Gαi2): 0
Potency (logEC50), Gαi3 (GLP-1R [3]; Supplementary Fig. 11b, Gαi3): 0
Potency (logEC50), GαoA (GLP-1R [3]; Supplementary Fig. 11b, GαoA): 0.573
Potency (logEC50), GαoB (GLP-1R [3]; Supplementary Fig. 11b, GαoB): 0.2577
Potency (logEC50), Gαq (GLP-1R [3]; Supplementary Fig. 11b, Gαq): 0
Potency (logEC50), Gαs (GLP-1R [3]; Supplementary Fig. 11b, Gαs): 0
Potency (logEC50), Gαz (GLP-1R [3]; Supplementary Fig. 11b, Gαz): 0.2291
Potency (logEC50), βARR2 (GLP-1R [3]; Supplementary Fig. 11b, βARR2): 0.384
